Key:
[1] = biological target: Serine/threonine-protein kinase PAK 2 (Homo sapiens) (UniProt Q13177); experiment: Inhibition of human truncated PAK2 expressed in Escherichia coli cell assessed as substrate phosphorylation using fluorescence-labelled peptides as substrate at 95 uM after 90 mins by microfluidic peptide phosphorylation assay
[2] = biological target: Hepatocyte growth factor receptor (Homo sapiens) (UniProt P08581); experiment: Inhibition of human MET cytoplasmic domain expressed in baculovirus assessed as substrate phosphorylation using fluorescence-labelled peptides as substrate at 0.06 uM after 90 mins by microfluidic peptide phosphorylation assay
Sequence of Hepatocyte growth factor receptor (Homo sapiens) (P08581 whole entry, the tested form may be a part): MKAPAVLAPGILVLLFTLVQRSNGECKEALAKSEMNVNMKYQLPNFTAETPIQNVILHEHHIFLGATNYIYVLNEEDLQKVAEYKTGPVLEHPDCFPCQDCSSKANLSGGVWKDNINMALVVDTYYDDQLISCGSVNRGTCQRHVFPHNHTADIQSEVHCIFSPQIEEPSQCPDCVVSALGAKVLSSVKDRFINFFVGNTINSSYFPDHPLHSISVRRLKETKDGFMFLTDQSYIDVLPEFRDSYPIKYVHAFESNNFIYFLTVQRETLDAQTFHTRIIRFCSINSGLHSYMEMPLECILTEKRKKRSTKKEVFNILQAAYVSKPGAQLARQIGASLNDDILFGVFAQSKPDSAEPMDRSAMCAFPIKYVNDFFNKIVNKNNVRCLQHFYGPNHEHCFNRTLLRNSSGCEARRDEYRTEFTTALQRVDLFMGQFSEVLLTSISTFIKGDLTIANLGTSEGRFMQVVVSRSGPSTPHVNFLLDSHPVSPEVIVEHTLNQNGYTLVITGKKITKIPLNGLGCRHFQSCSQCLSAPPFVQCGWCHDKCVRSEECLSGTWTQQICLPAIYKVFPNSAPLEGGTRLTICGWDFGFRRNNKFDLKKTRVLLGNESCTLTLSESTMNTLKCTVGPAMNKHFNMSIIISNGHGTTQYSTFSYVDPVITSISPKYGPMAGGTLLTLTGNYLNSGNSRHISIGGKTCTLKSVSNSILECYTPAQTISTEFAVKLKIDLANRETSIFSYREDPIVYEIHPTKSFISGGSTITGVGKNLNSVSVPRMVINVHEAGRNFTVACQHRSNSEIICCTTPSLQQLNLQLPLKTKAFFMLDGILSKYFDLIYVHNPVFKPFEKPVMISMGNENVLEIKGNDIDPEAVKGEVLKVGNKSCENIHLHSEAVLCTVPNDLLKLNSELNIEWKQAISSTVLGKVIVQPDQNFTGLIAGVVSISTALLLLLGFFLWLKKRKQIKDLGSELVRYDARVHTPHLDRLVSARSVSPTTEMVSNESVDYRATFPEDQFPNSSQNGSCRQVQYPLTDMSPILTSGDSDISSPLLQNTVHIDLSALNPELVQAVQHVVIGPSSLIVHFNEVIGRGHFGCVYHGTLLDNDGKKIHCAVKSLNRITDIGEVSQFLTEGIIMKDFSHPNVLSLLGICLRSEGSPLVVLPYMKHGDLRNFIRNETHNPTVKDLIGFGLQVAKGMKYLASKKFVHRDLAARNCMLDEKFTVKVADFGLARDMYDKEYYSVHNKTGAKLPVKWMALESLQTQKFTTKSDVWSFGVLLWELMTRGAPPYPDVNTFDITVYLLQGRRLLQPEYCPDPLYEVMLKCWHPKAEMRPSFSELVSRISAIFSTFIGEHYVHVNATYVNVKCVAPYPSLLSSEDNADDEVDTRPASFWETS

[3] = biological target: Insulin receptor (Homo sapiens) (UniProt P06213); experiment: Inhibition of human INSR catalytic domain expressed in baculovirus assessed as substrate phosphorylation using fluorescence-labelled peptides as substrate at […] after 90 mins by microfluidic peptide phosphorylation assay
[4] = biological target: MAP kinase p38 (Homo sapiens) (UniProt O15264+Q15759+Q16539+P53778); experiment: Inhibition of human full length p38 beta2 expressed in Escherichia coli cell assessed as substrate phosphorylation using fluorescence-labelled peptides as substrate at […] after 90 mins by microfluidic peptide phosphorylation assay
[5] = organism: Homo sapiens; experiment: Inhibition of human full length PKA expressed in baculovirus assessed as substrate phosphorylation using fluorescence-labelled peptides as substrate at 420 uM after 90 mins by microfluidic peptide phosphorylation assay
[6] = biological target: RAF proto-oncogene serine/threonine-protein kinase (Homo sapiens) (UniProt P04049); experiment: Inhibition of human truncated c-Raf expressed in baculovirus assessed as substrate phosphorylation using fluorescence-labelled peptides as substrate at 70 uM after 90 mins by microfluidic peptide phosphorylation assay
Sequence of RAF proto-oncogene serine/threonine-protein kinase (Homo sapiens) (P04049 whole entry, the tested form may be a part): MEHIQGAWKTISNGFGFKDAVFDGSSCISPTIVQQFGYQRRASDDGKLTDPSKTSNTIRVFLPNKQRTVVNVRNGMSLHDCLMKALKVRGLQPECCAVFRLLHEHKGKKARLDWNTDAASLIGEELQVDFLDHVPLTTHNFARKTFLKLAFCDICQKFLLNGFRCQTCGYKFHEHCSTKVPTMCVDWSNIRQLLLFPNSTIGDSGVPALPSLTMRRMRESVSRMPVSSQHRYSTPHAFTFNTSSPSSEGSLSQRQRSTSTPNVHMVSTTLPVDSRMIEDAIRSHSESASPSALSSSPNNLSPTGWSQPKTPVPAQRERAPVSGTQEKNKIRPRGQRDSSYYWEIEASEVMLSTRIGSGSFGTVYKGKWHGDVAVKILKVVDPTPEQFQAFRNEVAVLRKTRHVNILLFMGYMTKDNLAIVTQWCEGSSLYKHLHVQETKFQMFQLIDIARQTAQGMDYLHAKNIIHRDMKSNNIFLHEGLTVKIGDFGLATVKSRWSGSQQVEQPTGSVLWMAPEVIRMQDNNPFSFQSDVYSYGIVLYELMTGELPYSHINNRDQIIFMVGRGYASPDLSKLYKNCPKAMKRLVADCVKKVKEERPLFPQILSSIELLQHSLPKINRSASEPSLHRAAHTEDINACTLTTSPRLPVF

[7] = biological target: T1, Cytoplasmic tyrosine-protein kinase BMX (Homo sapiens) (UniProt P51813); experiment: Inhibition of human full length BMX expressed in baculovirus assessed as substrate phosphorylation using fluorescence-labelled peptides as substrate at 2 uM after 90 mins by microfluidic peptide phosphorylation assay
T1 sequence (whole entry): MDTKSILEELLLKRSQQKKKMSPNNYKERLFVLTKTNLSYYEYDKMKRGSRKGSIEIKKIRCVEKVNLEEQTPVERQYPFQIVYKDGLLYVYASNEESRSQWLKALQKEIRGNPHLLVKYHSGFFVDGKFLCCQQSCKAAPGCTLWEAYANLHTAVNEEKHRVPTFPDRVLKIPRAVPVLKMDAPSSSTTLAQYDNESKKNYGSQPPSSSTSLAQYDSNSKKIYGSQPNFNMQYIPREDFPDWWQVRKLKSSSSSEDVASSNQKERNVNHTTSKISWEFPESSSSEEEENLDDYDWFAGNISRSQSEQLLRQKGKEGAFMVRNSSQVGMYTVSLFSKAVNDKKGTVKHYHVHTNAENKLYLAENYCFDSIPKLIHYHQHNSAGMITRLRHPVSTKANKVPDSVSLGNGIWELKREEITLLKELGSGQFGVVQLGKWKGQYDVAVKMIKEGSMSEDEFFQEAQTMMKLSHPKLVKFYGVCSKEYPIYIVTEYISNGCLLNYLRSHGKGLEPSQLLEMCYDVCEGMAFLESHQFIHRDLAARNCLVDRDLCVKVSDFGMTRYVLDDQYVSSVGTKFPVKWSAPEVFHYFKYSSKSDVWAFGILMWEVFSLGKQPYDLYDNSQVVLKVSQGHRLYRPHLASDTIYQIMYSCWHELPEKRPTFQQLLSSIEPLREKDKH

[8] = system: Tyrosine-protein kinase ABL1 (Homo sapiens), P00519 [H396P]; experiment: Inhibition of human truncated ABL H396P mutant expressed in baculovirus assessed as substrate phosphorylation using fluorescence-labelled peptides as substrate at 2 uM after 90 mins by microfluidic peptide phosphorylation assay
[9] = biological target: T2, Serine/threonine-protein kinase BRSK2 (Homo sapiens) (UniProt Q8IWQ3); experiment: Inhibition of human truncated BRSK2 expressed in baculovirus assessed as substrate phosphorylation using fluorescence-labelled peptides as substrate at 8 uM after 90 mins by microfluidic peptide phosphorylation assay
T2 sequence (whole entry): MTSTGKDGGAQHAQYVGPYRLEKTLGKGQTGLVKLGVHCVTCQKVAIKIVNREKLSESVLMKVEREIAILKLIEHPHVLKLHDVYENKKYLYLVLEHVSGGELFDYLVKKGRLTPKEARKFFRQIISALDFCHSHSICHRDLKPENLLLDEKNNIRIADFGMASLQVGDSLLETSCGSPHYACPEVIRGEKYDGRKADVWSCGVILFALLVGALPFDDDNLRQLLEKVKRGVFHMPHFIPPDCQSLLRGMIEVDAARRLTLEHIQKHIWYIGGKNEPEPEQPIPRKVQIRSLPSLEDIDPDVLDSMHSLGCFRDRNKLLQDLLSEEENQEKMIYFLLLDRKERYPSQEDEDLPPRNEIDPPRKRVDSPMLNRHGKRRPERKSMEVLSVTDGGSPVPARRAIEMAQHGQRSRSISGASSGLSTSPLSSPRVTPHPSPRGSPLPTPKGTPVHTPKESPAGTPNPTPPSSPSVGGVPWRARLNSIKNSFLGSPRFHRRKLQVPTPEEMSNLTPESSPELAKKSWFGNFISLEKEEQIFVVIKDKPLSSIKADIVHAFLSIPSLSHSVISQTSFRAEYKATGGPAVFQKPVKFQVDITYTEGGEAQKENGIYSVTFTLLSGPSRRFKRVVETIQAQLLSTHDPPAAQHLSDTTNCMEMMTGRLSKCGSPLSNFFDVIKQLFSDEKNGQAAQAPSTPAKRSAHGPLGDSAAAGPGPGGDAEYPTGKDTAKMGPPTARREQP

[10] = system: Fibroblast growth factor receptor 2 (Homo sapiens), P21802 [N549H]; experiment: Inhibition of human FGFR2 N549H mutant catalytic domain expressed in baculovirus assessed as substrate phosphorylation using fluorescence-labelled peptides as substrate at 8 uM after 90 mins by microfluidic peptide phosphorylation assay
Sequence of Fibroblast growth factor receptor 2 (Homo sapiens), P21802 [N549H] (P21802 whole entry N549H, the tested form may be a part): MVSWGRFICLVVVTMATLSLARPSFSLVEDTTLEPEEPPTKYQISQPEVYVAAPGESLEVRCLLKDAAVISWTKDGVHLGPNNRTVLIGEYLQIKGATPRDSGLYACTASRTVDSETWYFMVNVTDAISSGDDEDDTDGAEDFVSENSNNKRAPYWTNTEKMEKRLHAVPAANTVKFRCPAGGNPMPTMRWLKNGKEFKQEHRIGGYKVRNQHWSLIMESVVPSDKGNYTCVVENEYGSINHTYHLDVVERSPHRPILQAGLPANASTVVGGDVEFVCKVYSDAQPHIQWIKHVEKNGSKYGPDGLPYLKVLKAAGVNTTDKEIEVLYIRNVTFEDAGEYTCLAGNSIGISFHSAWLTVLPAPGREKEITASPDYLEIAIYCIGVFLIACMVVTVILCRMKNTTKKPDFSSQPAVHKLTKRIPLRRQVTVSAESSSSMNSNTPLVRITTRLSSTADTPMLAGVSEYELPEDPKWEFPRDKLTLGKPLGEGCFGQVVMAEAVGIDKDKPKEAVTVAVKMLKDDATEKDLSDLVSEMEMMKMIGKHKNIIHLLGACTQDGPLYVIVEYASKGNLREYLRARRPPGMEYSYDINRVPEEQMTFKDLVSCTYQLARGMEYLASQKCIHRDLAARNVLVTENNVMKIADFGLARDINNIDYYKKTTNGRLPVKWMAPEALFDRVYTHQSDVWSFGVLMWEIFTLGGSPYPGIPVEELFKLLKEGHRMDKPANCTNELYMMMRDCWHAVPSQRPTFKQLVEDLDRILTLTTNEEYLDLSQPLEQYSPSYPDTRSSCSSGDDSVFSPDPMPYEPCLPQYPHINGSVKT

[11] = biological target: T3, Serine/threonine-protein kinase Sgk3 (Homo sapiens) (UniProt Q96BR1); experiment: Inhibition of human full length SGK3 expressed in baculovirus assessed as substrate phosphorylation using fluorescence-labelled peptides as substrate at 1000 uM after 90 mins by microfluidic peptide phosphorylation assay
T3 sequence (whole entry): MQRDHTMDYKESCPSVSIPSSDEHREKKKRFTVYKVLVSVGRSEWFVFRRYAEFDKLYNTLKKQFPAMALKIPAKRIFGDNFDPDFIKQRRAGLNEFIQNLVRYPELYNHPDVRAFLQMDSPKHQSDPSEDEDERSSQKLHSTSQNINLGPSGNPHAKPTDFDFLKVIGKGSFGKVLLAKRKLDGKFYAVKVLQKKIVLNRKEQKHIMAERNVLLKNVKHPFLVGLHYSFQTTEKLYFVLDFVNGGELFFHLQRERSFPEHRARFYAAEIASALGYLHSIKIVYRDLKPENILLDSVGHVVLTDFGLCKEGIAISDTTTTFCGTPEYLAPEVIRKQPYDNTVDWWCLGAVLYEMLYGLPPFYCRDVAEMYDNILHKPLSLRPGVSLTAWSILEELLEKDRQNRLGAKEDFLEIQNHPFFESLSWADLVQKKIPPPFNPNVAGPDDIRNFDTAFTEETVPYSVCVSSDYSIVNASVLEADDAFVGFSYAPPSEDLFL

Sequence of Serine/threonine-protein kinase PAK 2 (Homo sapiens) (Q13177 whole entry, the tested form may be a part): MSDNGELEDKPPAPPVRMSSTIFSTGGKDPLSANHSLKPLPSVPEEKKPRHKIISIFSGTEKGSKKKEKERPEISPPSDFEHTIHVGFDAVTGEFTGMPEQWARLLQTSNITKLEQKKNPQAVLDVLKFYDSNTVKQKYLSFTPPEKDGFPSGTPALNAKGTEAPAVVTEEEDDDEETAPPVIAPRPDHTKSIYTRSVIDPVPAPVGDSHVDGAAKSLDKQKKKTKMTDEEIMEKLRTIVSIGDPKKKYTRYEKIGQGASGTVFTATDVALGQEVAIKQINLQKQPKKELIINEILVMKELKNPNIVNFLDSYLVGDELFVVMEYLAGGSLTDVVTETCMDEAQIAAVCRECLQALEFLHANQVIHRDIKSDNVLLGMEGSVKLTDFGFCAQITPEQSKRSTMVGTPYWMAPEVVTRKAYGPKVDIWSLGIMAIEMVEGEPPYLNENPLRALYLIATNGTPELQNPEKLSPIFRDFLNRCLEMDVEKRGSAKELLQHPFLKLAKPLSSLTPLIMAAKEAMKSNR

With `NCCc1ccc(-c2ncnc3[nH]cnc23)cc1` the inhibition [1] was 57.5%.
For `NC1(Cc2ccc(Cl)cc2)CCN(c2ncnc3[nH]ccc23)CC1`, the inhibition [2] was 0%.
For `COC(=O)c1cnc(Nc2cnc(C#N)cn2)cc1NCC1CCNCC1`, the inhibition [3] was 7% and the inhibition [4] was 1%.
`c1nc(N2CCOCC2)c2nc[nH]c2n1` gave an inhibition [5] of 92.5%.
Work on `CNCc1ccc(-c2ncnc3[nH]cnc23)cc1` yielded an inhibition [6] of 39.5%.
`NC1CCN(c2ncnc3[nH]ccc23)CC1` was tested, and the inhibition [7] was 2% and the inhibition [8] was 2.5%.
Molecule `NCC1CCN(c2ncnc3[nH]ccc23)CC1` has an inhibition [9] of 56.5% and an inhibition [10] of 0%.
`c1cnc2[nH]ccc2c1` showed an inhibition [11] of 80.5%.
